Results reported in PMC4575386, “Intact cell mass spectrometry as a rapid and specific tool for the differentiation of toxic effects in cell-based ecotoxicological test systems” (Analytical and Bioanalytical Chemistry, 2015).
“And” between values parts separate entries of the source, which are not always exact repeats. Equal values may be shown once.

Key:
in vitro = conditions: rainbow trout (Oncorhynchus mykiss)
Source text: (§1) Subsequently, medium was replaced with exposure medium.

RTL-W1 cells [1] = assay: Intact cell MALDI-TOF mass spectrometry (IC-MS) profiles after 24 h toxin exposure; format: cell-based, rainbow trout (Oncorhynchus mykiss); conditions: for number of IC-MS peaks that changed significantly through the toxin exposure: 24 h exposure
Description: For IC-MS studies, cells were seeded in T25 cell culture flasks with a total amount of 1.7 × 10^6 cells. […] Toxin exposure was performed according to the viability studies.
After 24 h of toxin exposure, cells were harvested and washed with PBS at 2000×g, 4 °C for 5 min (Eppendorf 5424, Hamburg, Germany) based on the method detailed by Dong et al.. The total number of cells was calculated using an automated cell counter (Cedex XS Analyzer, Roche Innovatis, Bielefeld, Germany). The cell pellets were stored at −20 °C until IC-MS analysis.
According to the calculated cell number, stock solutions with 5 × 10^4 cells per μL as well as further dilutions of 2 × 10^4 and 1 × 10^4 cells per μL were prepared with PBS und stored on ice prior to IC-MS.
Samples and matrix solutions were deposited on the MALDI-TOF MS target layer by layer and successively air dried. First, a thin layer of saturated SA in ethanol was applied to an Opti-TOF 384 well insert (Kratos Analytical, Manchester, UK), followed by 0.5 μL of the sample solution and, finally, covered with 0.5 μL of SA matrix (38 mg/ml in water/ACN/TFA 40/60/0.2 (v/v/v)) which was presented by Munteanu et al.. All sample dilutions were spotted in duplicate.
MALDI-TOF mass spectra were obtained using an Axima Confidence mass spectrometer (Shimadzu Biotech, Manchester, UK) equipped with a 337-nm nitrogen laser. The filter for regulation of the laser firing power was set to 65. To generate representative profiles, a total of 600 laser shots were accumulated and averaged for each sample. Protein mass fingerprints were obtained in the linear, positive mode at a maximal laser repetition rate of 50 Hz within a mass range of 2000 to 20,000 Da.
MALDI-TOF MS data processing was performed using the LaunchpadTM v. 2.9 software (Shimadzu Biotech). A set of 10 peaks that occurred in the majority of spectra and were evenly distributed across the whole mass range were used for internal calibration.
For peak acquisition, an average smoothing method was performed with a smoothing filter width of 50 channels and a baseline filter width of 100 channels. […] For each spotted sample, a list of spectrum peaks was generated and analyzed statistically. The masses of equally treated samples were matched and means and standard deviations of ion abundances calculated. […] For principal component analysis (PCA), relative ion abundances were calculated and data normalized according to the control treatments. […]
The 15 distinctive peaks between m/z 4562 and m/z 15,292 were analyzed for each toxin treatment: The arithmetic mean of the ion abundances was calculated from the six replicates and the direction of deviation from the control treatment was determined and tested for significance (paired two-sample t test) (Table 2).

RTL-W1 = tested on: RTL-W1; parameters: method as in PMID 24416442; conditions: RTL-W1, in preparation for micronucleus assays; cited from earlier work
[2] = Solubility in the culture medium (observation); format: physicochemical; conditions: high concentrations resulted in precipitation
RTL-W1 cells [3] = assay: Viability studies (CellTiter-Blue® and CellTiter-Glo®, not told apart); conditions: 24 h
Source text: as §1

RTL-W1 cells [4] = tested on: RTL-W1 cells; parameters: method as in earlier work; conditions: cited from earlier work
RTL-W1 cells [5] = tested on: RTL-W1 cells; parameters: method as in earlier work; conditions: cited from earlier work; remark: listed apart in the source
RTL-W1 cells [6] = conditions: 24 h exposure, L15/ex medium
Description: (§2) In this study, RTL-W1, a liver cell line from rainbow trout (Oncorhynchus mykiss) was used. […] The cells were routinely grown according to the method detailed by Hinger et al. [23] at 20 °C in Leibovitz L15 medium (Biochrom, Berlin, Germany) supplemented with 10 % fetal calf serum (Biochrom), 5 mM L-alanyl-L-glutamin (Biochrom) and 1 % antibiotics (Gibco by Life Technologies). Cells were grown to approximately 90 % confluency before passaging for experimental use.
(§3) Viability studies were performed in 96-well assay plates. Cells were seeded at a density of 20,000 viable cells/well and cultivated for approximately 24 h. Subsequently, medium was replaced with exposure medium. […]
(§4) After 24 h, the cultures were assayed for viability according to the manufacturer’s instructions (Promega). After a final incubation time of 4 h for CellTiter-Blue® Viability Assay, fluorescence was recorded at 540/595 nm on Tecan infinite 200 Pro microtiter plate reader (Tecan, Männedorf, Switzerland). The integration time for luminescence detection (CellTiter-Glo® Luminescent Cell Viability Assays) on Tecan GENios Plus microtiter plate reader (Tecan) was 500 ms per well.
(§5) Statistical analysis and EC50 calculations were performed using GraphPad Prism (Graphpad Software, San Diego, USA). […] EC50 values were calculated with a sigmoid dose–response fit and automatic outlier detection.

RTL-W1 cells [7] = conditions: 24 h exposure, L15/ex medium; remark: listed apart in the source
Description: as §2, §3, §4, §5

Row | Compound | viability at 24 h, 150 µM (in vitro) | number of IC-MS peaks that changed significantly through the toxin exposure (RTL-W1 cells [1]) | EC20, neutral red retention assay (RTL-W1) | solubility in the culture medium [2] | viability at 24 h, 50 µM (in vitro) | concentrations with significant decrease in viability (RTL-W1 cells [3]; vs control) | EC50 (membrane integrity), literature value (RTL-W1 cells [4]) | EC50 (redox activity), literature value (RTL-W1 cells [5]) | EC50 cytotoxicity, CellTiter-Glo®, 24 h (RTL-W1 cells [6]) | viability impairment (RTL-W1 cells [3]; 9 mg/L) | IC-MS profile behavior (RTL-W1 cells [1]; 2 mg/L, lowest concentration) | EC50 cytotoxicity, CellTiter-Blue®, 24 h (RTL-W1 cells [7])
1 | c1ccc2nc3ccccc3cc2c1 [Acridine, acridine] | ~50% | seven | 40.9 mg/L and 228 μM |  |  |  |  |  |  |  |  | 
2 | O=c1cc(-c2ccccc2)oc2ccc3ccccc3c12 [BNF, β-naphthoflavone] |  | nine |  | low solubility | ~50% | 10 µM and 20 µM |  |  |  |  |  | 
3 | O=S(=O)([O-])[O-].[Cu+2] [Copper sulfate, copper sulfate] |  | eight |  |  |  |  | 6.56 µg/mL | 3.69 µg/mL | 10.08 µg/mL | roughly 50% | apoptotic behavior | 8.23 µg/mL
